Data reported in publication PMC6838762 (Biophysical Journal, 2019).

Molecular target: T1, FeuA (Bacillus subtilis, UniProt P40409, Q131C)
T1 sequence (P40409 21-317 Q131C): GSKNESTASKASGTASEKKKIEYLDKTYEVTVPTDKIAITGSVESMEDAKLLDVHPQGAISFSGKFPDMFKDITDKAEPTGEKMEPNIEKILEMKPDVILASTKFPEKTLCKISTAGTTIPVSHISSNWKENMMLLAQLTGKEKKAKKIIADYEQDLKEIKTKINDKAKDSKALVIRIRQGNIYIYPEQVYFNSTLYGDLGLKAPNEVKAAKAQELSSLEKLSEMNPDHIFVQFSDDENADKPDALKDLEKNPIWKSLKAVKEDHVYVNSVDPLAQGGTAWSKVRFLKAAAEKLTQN
Assay type: binding

Work on ferri-bacillibactin [FeBB] yielded a Kd of 20 ± 3 nM.
